US9624195B2, “Isoquinoline compounds” (Gilead Sciences, Inc., priority 2014, dated 2017)
Like-named read-outs stand apart in the source and are kept apart here.

Tests used:
Assay type in all cases: cell-based
HIV-1 HBX2 (wild type) = experiment: High throughput cytopathic effect assay in MT-4 cells, HIV-1 wild type
Source text: (§1) Compounds were screened in a miniaturized, high throughput cytopathic effect assay for activity against HIV-1 HBX2 (wild type) and HIV-1 reverse transcriptase mutants K103N and Y181C. In Tables 1 and 2 below, “w.t.” refers to results of the tested compounds run with the wildtype 1 and “w.t. assay 2” refers results of the tested compounds run with the wildtype on the same day as the testing of the compounds with the mutants. Thus, “w.t. assay 2” was run under the same conditions as the testing of the compounds with the mutants and provides a direct comparison with the results from the testing with the mutants.
(§2) Ten-point serial dilutions of compounds with half-log step size were generated in DMSO. AZT (5 μM) was used as the positive control and DMSO as the negative control. The Echo acoustic dispenser was used to deliver 200 nL of serially diluted compound into sterile 384 well tissue culture assay plates. Two million MT-4 cells were incubated with each of the 3 viruses at MOI of 0.0005 in separate 1 mL infection tubes for 1 hour at 37° C. The cells were diluted in cell culture medium (RPMI+10% FBS) to 50,000 cells/mL. The infected cells were added to 384 well assay plates containing serially dilute compounds. Assay plates were incubated for 5 days in a humidified incubator set at 37° C. and 5% CO2. To measure the cytopathic effect of HIV, 40 μL Cell TiterGlo was added to each well and the resulting luminescence signal is read with the Envision plate reader (Perkin Elmer). Data were normalized to positive and negative controls in each plate and expressed as % CPE Protection. EC50 values were defined as the compound concentration that caused a 50% […] in luminescence signal, and were calculated by non-linear regression using Pipeline Pilot software by applying a four parameter fit equation (Accelrys, San Diego, Calif.).
(§3) The high-throughput screening was also run for nevirapine (“NPV”), rilpivirine (“RPV”), and efavirenz (“EFV”). Nevirapine was obtained from Toronto Research Chemicals, Inc. (Toronto, Canada; Catalogue #N391275). Rilpivirine was obtained from Key Organics Ltd. (Camelford, Cornwall, United Kingdom; Catalogue #KE-0036). Efavirenz was obtained from Toronto Research Chemicals, Inc. (Toronto, Canada; Catalogue #E425000). Further details and background can be found in Janssen et al, J. Med. Chem, 2005, 48, 1901-1909; Das et al., Proc. Nat. Acad. Sci., 2008, vol., 105, no. 5, 1466-1471; and Kuroda et al., Nature Chemistry, 2013, DOI: 10.1038/NCHEM.1559.

[1] = system: HIV-1 reverse transcriptase mutant K103N; experiment: High throughput cytopathic effect assay in MT-4 cells, HIV-1 RT mutant K103N; conditions: for EC50: Human immunodeficiency virus 1, MT4, read-out: MT4 EC50 (nM) against K103N; for FC against mutant K103N: fold change of EC50, K103N versus w.t. assay 2
Source text: as §1, §2, §3

[2] = system: HIV-1 reverse transcriptase mutant Y181C; experiment: High throughput cytopathic effect assay in MT-4 cells, HIV-1 RT mutant Y181C; conditions: for EC50: Human immunodeficiency virus 1, MT4, read-out: MT4 EC50 (nM) against Y181C; for FC against mutant Y181C: fold change of EC50, Y181C versus w.t. assay 2
Source text: as §1, §2, §3

hERG channels = target: T1, hERG channels (Homo sapiens, UniProt Q12809); experiment: hERG assay, whole cell recordings in CHO cells stably expressing hERG channels; conditions: tail current, whole cell patch clamp
T1 construct: host or cells: CHO cells stably expressing hERG
Protocol: AVIVA's CHO cell line, which stably expresses hERG channels, was used for the study. Cells were cultured in DMEM/F12 containing 10% FBS, 1% penicillin/streptomycin and 500 μg/ml G418. Before testing, cells were harvested using Accumax (Innovative Cell Technologies).
For electrophysiological recordings, the following solutions were used:
External Solution: 2 mM CaCl2; 2 mM MgCl2; 4 mM KCl; 150 mM NaCl; 10 mM Glucose; 10 mM HEPES; 305-315 mOsm; pH 7.4 (adjusted with 5M NaOH.)
Internal Solution: 140 mM KCl; 10 mM MgCl2; 6 mM EGTA; 5 mM HEPES-Na; 5 mM ATP-Mg; 295-305 mOsm; pH 7.25 (adjusted with 1M KOH).
Whole cell recordings were performed using PX 7000A (Axon Instruments) with AVIVA's SealChip™ technology. Cells were voltage clamped at a holding potential of −80 mV. The hERG current was then activated by a depolarizing step to −50 mV for 300 ms. This first step at −50 mV was used as a baseline for measuring peak amplitude of the tail current. Next, a voltage step to +20 mV was applied for 5 s to activate the channels. Finally, a step back to −50 mV for 5 s removed activation and the deactivating tail current was recorded.
All test articles were prepared from 10 mM DMSO stock solutions. […]
After achieving whole cell configuration, cells were monitored for 90 s to assess stability and then washed with External Solution for 66 s. […]

[3] = Human immunodeficiency virus 1, MT4, 120 h, MT-4 cells, HIV-1 wild type, 5 days, CPE protection (Cell TiterGlo), read-out: MT4 EC50 (nM) against w.t.
[4] = Human immunodeficiency virus 1, MT4, read-out: MT4 EC50 (nM) against w.t. assay 2

T1 sequence (Q12809 whole entry): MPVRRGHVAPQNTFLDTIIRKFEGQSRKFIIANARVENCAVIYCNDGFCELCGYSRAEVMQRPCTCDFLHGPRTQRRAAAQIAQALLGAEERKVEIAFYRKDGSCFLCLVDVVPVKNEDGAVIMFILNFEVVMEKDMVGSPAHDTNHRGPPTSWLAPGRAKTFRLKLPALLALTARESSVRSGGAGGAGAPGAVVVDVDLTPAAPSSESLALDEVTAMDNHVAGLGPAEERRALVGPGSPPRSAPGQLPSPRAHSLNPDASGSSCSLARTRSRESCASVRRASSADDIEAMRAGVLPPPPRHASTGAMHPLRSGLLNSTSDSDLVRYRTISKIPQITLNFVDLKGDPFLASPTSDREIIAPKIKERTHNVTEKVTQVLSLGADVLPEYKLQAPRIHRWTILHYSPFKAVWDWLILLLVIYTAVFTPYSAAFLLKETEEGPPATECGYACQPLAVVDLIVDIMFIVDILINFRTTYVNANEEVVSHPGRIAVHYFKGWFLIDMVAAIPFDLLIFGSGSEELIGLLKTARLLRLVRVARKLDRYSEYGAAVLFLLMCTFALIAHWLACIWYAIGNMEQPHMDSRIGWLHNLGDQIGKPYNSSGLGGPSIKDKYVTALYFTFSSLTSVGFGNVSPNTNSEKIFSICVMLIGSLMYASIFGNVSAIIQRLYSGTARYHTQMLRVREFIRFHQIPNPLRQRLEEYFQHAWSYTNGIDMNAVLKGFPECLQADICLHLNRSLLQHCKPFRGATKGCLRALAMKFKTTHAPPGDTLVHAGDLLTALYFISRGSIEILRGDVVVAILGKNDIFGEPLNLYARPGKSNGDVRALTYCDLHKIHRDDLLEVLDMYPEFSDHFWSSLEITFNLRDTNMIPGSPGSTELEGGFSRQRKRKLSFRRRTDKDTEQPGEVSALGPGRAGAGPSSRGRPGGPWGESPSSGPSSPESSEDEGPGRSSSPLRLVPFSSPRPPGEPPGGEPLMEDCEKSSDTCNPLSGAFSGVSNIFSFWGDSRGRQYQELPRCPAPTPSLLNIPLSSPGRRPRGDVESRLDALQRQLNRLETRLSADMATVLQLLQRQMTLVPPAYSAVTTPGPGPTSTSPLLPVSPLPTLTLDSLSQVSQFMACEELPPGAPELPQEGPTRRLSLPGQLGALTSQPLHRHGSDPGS

Compound	EC50 (HIV-1 HBX2 (wild type); [3])	EC50 [1]	FC against mutant K103N [1]	EC50 [2]	FC against mutant Y181C [2]	EC50 (HIV-1 HBX2 (wild type); [4])	hERG (hERG channels)
Cc1ccnc2c1NC(=O)c1cccnc1N2C1CC1 [Nevirapine, nevirapine, reference compound]	65 nM						
Cc1cc(/C=C/C#N)cc(C)c1-c1cccc2c(N)nc(Nc3cnc(C#N)cn3)cc12 [Compound 2, (E)-5-((1-Amino-5-(4-(2-cyanovinyl)-2,6-dimethylphenyl)isoquinolin-3-yl)amino)pyrazine-2-carbonitrile]	14.4 nM	29.7 nM	1.5	109 nM	5.4	20.2 nM	
Cc1cc(/C=C/C#N)cc(C)c1-c1cccc2c(N)nc(Nc3ccc(C#N)nn3)cc12 [Compound 3, (E)-6-((1-Amino-5-(4-(2-cyanovinyl)-2,6-dimethylphenyl)isoquinolin-3-yl)amino)pyridazine-3-carbonitrile]	17 nM	36.4 nM	1.6	174 nM	7.7	22.7 nM	
Cc1cc(/C=C/C#N)cc(C)c1-c1cccc2c(N)nc(Nc3ccc(C#N)cn3)cc12 [Compound 4, (E)-6-((1-Amino-5-(4-(2-cyanovinyl)-2,6-dimethylphenyl)isoquinolin-3-yl)amino)nicotinonitrile]	2.8 nM	3.7 nM	1.0	12 nM	3.4	3.6 nM	3 µM
O=C1Nc2ccc(Cl)cc2[C@@](C#CC2CC2)(C(F)(F)F)O1 [Efavirenz, efavirenz, reference compound]	1.3 nM	46.4 nM	28.9	3.8 nM	2.3	1.6 nM	
Cc1cc(/C=C/C#N)cc(C)c1-c1cccc2c(N)nc(Nc3ncc(C#N)cn3)cc12 [Compound 1, (E)-2-((1-Amino-5-(4-(2-cyanovinyl)-2,6-dimethylphenyl)isoquinolin-3-yl)amino)pyrimidine-5-carbonitrile]	6.4 nM	6.4 nM	1.4	51.6 nM	11.5	4.5 nM	
Cc1cc(/C=C/C#N)cc(C)c1Nc1ccnc(Nc2ccc(C#N)cc2)n1 [Rilpivirine, rilpivirine, reference compound]	0.9 nM	1.5 nM	1.2	3.8 nM	3.1	1.3 nM	0.5 µM
Cc1cc(/C=C/C#N)cc(C)c1-c1cccc2cnc(Nc3ccc(C#N)cn3)cc12 [Compound 5, (E)-6-((5-(4-(2-Cyanovinyl)-2,6-dimethylphenyl)isoquinolin-3-yl)amino)nicotinonitrile]	4.2 nM	4.7 nM	1.0	12 nM	2.5	4.7 nM	
Cc1cc(/C=C/C#N)cc(C)c1-c1cccc2cnc(Nc3ccc(C#N)cc3)cc12 [Compound 6, (E)-4-((5-(4-(2-Cyanovinyl)-2,6-dimethylphenyl)isoquinolin-3-yl)amino)benzonitrile]	12.9 nM						
